Where a name gives a salt, the structure may show the parent alone.
Tested on: conscious cynomolgus monkeys
Test: Cardiovascular side effects (blood pressure, heart rate) after i.v. administration
Format: in vivo, cynomolgus monkey
Conditions: i.v. 50 μg/kg, up to 6 hours; + with * = increase from base levels
Text: Cardiovascular measurements were made in a different group of monkeys using a BP 100S automated sphygmomanometer (Nippon Colin,. Japan).

| Compound | Maximum % Decrease From Pretreatment Levels, Heart Rate | Maximum % Decrease From Pretreatment Levels, Mean Arterial Blood Pressure |
| --- | --- | --- |
| Cc1ccsc1Cc1cnc[nH]1 [4(5)-(3-methyl-thiophen-2-ylmethyl)-1H-imidazole, reference compound] | 23 ± 4% | 9 ± 3% |

Same assay, conditions: i.v. 167 μg/kg, up to 6 hours; + with * = increase from base levels

| Compound | Maximum % Decrease From Pretreatment Levels, Heart Rate | Maximum % Decrease From Pretreatment Levels, Mean Arterial Blood Pressure |
| --- | --- | --- |
| Cc1ccsc1Cc1cnc[nH]1 [4(5)-(3-methyl-thiophen-2-ylmethyl)-1H-imidazole, reference compound] | 32 ± 8% | 8 ± 6% |

Same assay, conditions: i.v. 500 μg/kg, up to 6 hours; + with * = increase from base levels

| Compound | Maximum % Decrease From Pretreatment Levels, Heart Rate | Maximum % Decrease From Pretreatment Levels, Mean Arterial Blood Pressure |
| --- | --- | --- |
| O=C1c2ccccc2OCC1Cc1c[nH]cn1 (stereo not shown) [Example B-2b, 3-(1H-imidazol-4(5)-ylmethyl)chroman-4-one] | 6.4 ± 3.6% | 5.7 ± 1.4% |
| c1coc(Cc2c[nH]cn2)c1 [Example C-5, 4(5)-furan-2-ylmethyl-1H-imidazole] | 7.1 ± 3.9% | 3.9 ± 2.8% |

Same assay, conditions: intravenous administration, monkeys

| Compound | effect on heart rate (in words) |
| --- | --- |
| Cc1ccsc1Cc1cnc[nH]1 [4(5)-(3-methyl-thiophen-2-ylmethyl)-1H-imidazole, reference compound] | weak effect on heart rate |

Target: T1, rat α2B (RNG gene) receptor (Rattus norvegicus, UniProt P19328)
T1 construct: expressed in transfected cells; host or cells: NIH-3T3 cells, calcium phosphate cotransfection
T1 sequence (P19328 1-453): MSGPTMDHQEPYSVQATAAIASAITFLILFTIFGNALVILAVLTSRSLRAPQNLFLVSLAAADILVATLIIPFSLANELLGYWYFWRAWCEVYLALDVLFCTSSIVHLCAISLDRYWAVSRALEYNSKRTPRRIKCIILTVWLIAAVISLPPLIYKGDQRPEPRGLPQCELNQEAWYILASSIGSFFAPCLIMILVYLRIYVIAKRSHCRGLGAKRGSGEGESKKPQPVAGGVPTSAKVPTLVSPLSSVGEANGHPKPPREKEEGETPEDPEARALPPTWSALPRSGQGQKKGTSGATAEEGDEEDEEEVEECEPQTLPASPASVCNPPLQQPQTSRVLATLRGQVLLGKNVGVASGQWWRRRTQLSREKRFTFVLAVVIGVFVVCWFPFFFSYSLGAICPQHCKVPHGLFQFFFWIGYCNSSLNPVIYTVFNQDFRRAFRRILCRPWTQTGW
Test: RSAT (Receptor Selection and Amplification Technology) assay, alpha 2B
Format: cell-based
Conditions: ratio of maximal effect to that of standard full agonist oxymetazoline
Text: This preferential activity can be determined in a variety of functional assays such as Cyclic AMP Production, Shimizu et al, J. Neurochem. […] In the study below, the RSAT assay on cells that have been transiently transfected with the human α2A (c10 gene), rat α2B (RNG gene) and human α2C (c4 gene) receptors was used.
The assay measures a receptor-mediated loss of contact inhibition that results in selective proliferation of receptor-containing cells in a mixed population of confluent cells. The increase in cell number is assessed with an appropriate transfected marker gene such as b-galactosidase, the activity of which can be easily measured in a 96-well format. Receptors that activate the G protein, Gq, elicit this response. Alpha2 receptors, which normally couple to Gi, activate the RSAT response when coexpressed with a hybrid Gq protein that has a Gi receptor recognition domain, called Gq/i5^2.
NIH-3T3 cells are plated at a density of 2×10^6 cells in 15 cm dishes and maintained in Dulbecco's modified Eagle's medium supplemented with 10% calf serum. One day later, cells are cotransfected by calcium phosphate precipitation with mammalian expression plasmids encoding p-SV-b-galactosidase (5-10 mg), receptor (1-2 mg) and G protein (1-2 mg). 40 mg salmon sperm DNA may also be included in the transfection mixture. Fresh media is added on the following day and 1-2 days later, cells are harvested and frozen in 50 assay aliquots. Cells are thawed and 100 ml added to […] aliquots of various concentrations of drugs in triplicate in 96-well dishes. Incubations continue 72-96 hr at 37°. After washing with phosphate-buffered saline, b-galactosidase enzyme activity is determined by adding 200 ml of the chromogenic substrate (consisting of 3.5 mM o-nitrophenyl-b-D-galactopyranoside and 0.5% nonidet P-40 in phosphate buffered saline), incubating overnight at 30° and measuring optical density at 420 nm. The absorbence is a measure of enzyme activity, which depends on cell number and reflects a receptor-mediated cell proliferation. The EC50 and maximal effect of each drug at each alpha2 receptor is determined. The efficacy or intrinsic activity is calculated as a ratio of the maximal effect of the drug to the maximal effect of a standard full agonist for each receptor subtype.

| Compound | Intrinsic Activity Relative to Oxymetazoline, Alpha 2B |
| --- | --- |
| Cc1ccsc1Cc1cnc[nH]1 [4(5)-(3-methyl-thiophen-2-ylmethyl)-1H-imidazole, reference compound] | 1.4 |
| O=C1c2ccccc2OCC1Cc1c[nH]cn1 (stereo not shown) [Example B-2b, 3-(1H-imidazol-4(5)-ylmethyl)chroman-4-one] | 0.77 |
| c1coc(Cc2c[nH]cn2)c1 [Example C-5, 4(5)-furan-2-ylmethyl-1H-imidazole] | 1.1 |
| c1nc(Cc2cc3c(s2)SCCC3)c[nH]1 [Example K-3, 4(5)-(5,6-dihydro-4H-thieno[2,3-b]thiopyran-2-ylmethyl)-1H-imidazole] | 0.37 |
| C1=C2CCCCC2CCC1Cc1c[nH]cn1 (stereo not shown) [Example N-2, 4(5)-(2,3,4,4a,5,6,7,8-octahydronaphthalen-2-ylmethyl)-1H-imidazole] | 0.5 |
| c1nc(CC2CCC3=C(CCCC3)C2)c[nH]1 (stereo not shown) [Example N-3, 4(5)-(1,2,3,4,5,6,7,8-octahydronaphthalen-2-ylmethyl)-1H-imidazole, fumarate] | 0.75 |
| Cl.c1nc(CC2CC3CCCC3C2)c[nH]1 (stereo not shown) [Example O, 4(5)-octahydro pentalen-2-ylmethyl-1H-imidazole, hydrochloride] | 0.67 |
| O=C1c2cnccc2CCC1Cc1c[nH]cn1 (stereo not shown) [Example P-1, 7-(1H-imidazol-4(5)-ylmethyl)-6,7-dihydro-5H-isoquinoline-8-one, fumarate] | 0.4 |
| c1cc2c(cn1)CC(Cc1c[nH]cn1)CC2 (stereo not shown) [Example P-2, 7-(1H-imidazol-4(5)-ylmethyl)-5,6,7,8-tetrahydro-isoquinoline, fumarate] | 0.4 |
| O=C1/C(=C\c2c[nH]cn2)CCc2ncccc21 [Example Q-1, (Z)-6-(1H-imidazol-4(5)-ylmethylene)-7,8-dihydro-6H-quinolin-5-one] | 0.75 |
| O=C1/C(=C/c2c[nH]cn2)CCc2ncccc21 [Example Q-2, (E)-6-(1H-imidazol-4(5)-ylmethylene)-7,8-dihydro-6H-quinolin-5-one] | 0.87 |
| O=C1c2cccnc2CCC1Cc1c[nH]cn1 (stereo not shown) [Example Q-3, 6-(1H-imidazol-4(5)-ylmethyl)-7,8-dihydro-6H-quinolin-5-one] | 0.9 |
| c1cnc2c(c1)CC(Cc1c[nH]cn1)CC2 (stereo not shown) [Example Q-4, 6-(1H-imidazol-4(5)-ylmethyl)-5,6,7,8-tetrahydro-quinoline, dihydrochloride] | 0.8 |
| O=C1C(Cc2c[nH]cn2)CCC2NCCCC12 (stereo not shown) [Example Q-5, 6-(1H-imidazol-4(5)-yl-methyl)-octahydroquinolin-5-one] | 1.0 |
| O=C1/C(=C/c2c[nH]cn2)CCc2nccnc21 [Example R-1, (E)-6-(1H-imidazol-4(5)-ylmethylene)-7,8-dihydro-6H-quinoxalin-5-one] | 0.8 |
| O=C1c2ccncc2CCC1Cc1c[nH]cn1 (stereo not shown) [Example R-2, 6-(1H-imidazol-4(5)-ylmethyl)-7,8-dihydro-6H-isoquinolin-5-one, dihydrochloride] | 0.6 |
| c1cc2c(cn1)CCC(Cc1c[nH]cn1)C2 (stereo not shown) [Example R-3, 6-(1H-imidazol-4(5)-ylmethyl)-5,6,7,8-tetrahydro-isoquinoline, fumarate] | 0.6 |

| Compound | Intrinsic Activity Relative to Oxymetazoline, Alpha 2B |
| --- | --- |
| C[C@@]12CCCCC1=C[C@@H](Cc1c[nH]cn1)CC2 [Example S, 4(5)-(4a-methyl-2,3,4,4a,5,6,7,8-octahydro-naphthalen-2-ylmethyl)-1H-imidazole, but-2-enedioic acid salt] | .6 |
| CC1=CC(Cc2c[nH]cn2)CCC1 (stereo not shown) [Example T-1, 4(5)-(3-methyl-cyclohex-2-enylmethyl)-1H-imidazole, but-2-enedioic acid salt] | 0.8 |
| CC1=CC(Cc2c[nH]cn2)CC(C)(C)C1 (stereo not shown) [Example T-2, 4(5)-(3,5,5-trimethyl-cyclohex-2-enylmethyl)-1H-imidazole, but-2-endioic acid salt] | 0.7 |
| CC1=CC(Cc2c[nH]cn2)CC1 (stereo not shown) [Example T-3, 4(5)-(3-methylcyclopent-2-enylmethyl)-1H-imidazole, but-2-enedioic acid salt] | 1.08 |
| C1=CC(Cc2c[nH]cn2)CCC1 (stereo not shown) [Example U-1, 4(5)-cyclohex-2-enylmethyl-1H-imidazole, but-2-enedioic acid salt] | 0.6 |
| CC1C=CC(Cc2c[nH]cn2)CC1 (stereo not shown) [Example U-2, 4(5)-(4-methyl-cyclohex-2-enylmethyl)-1H-imidazole, but-2-enedioic acid salt] | 0.6 |
| CC1=C(C)CC(Cc2c[nH]cn2)CC1 (stereo not shown) [Example W-1, 4(5)-(3,4-Dimethyl-cyclohex-3-enylmethyl)-1H-imidazole, but-2-enedioic acid salt] | 0.55 |
| C1=CCC(Cc2c[nH]cn2)CC1 (stereo not shown) [Example W-2, 4(5)-Cyclohex-3-enylmethyl-1H-imidazole, but-2-enedioic acid salt] | 0.6 |
| CC1=CCC(Cc2c[nH]cn2)CC1 (stereo not shown) [Example X-1, 4(5)-(4-Methyl-cyclohex-3-enylmethyl)-1H-imidazole, but-2-enedioic acid salt] | 0.8 |
| CCC1=CCC(Cc2c[nH]cn2)CC1 (stereo not shown) [Example X-2, 4(5)-(4-Ethyl-cyclohex-3-enylmethyl)-1H-imidazole, but-2-enedioic acid salt] | 0.56 |
| CCCCCC1=CCC(Cc2c[nH]cn2)CC1 (stereo not shown) [Example X-3, 4(5)-(4-Pentyl-cyclohex-3-enylmethyl)-1H-imidazole, but-2-enedioic acid salt] | 0.87 |
| Cc1c(N=C2NCCN2)ccc2c1NC(=O)CO2 [F, 6-(imidazolidin-2-ylideneamino)-5-methyl-4H-benzo[1,4]oxazin-3-one] | 0.9 |
| Cc1ccc(N=C2NCCN2)c2c1NCCO2.Cl [G, imidazolin-2-ylidene-(5-methyl-3,4-dihydro-2H-benzo[1,4]oxazin-8-yl) amine, hydrogen chloride salt] | 0.87 |
| c1ccc(Sc2c[nH]cn2)cc1 [H, 4(5)-phenylsulfanyl-1H-imidazole] | 0.93 |
| C1=NC(CC2CCc3ccccc3C2)CN1 (stereo not shown) [I, 4(5)-(1,2,3,4-tetrahydronaphthalen-2-ylmethyl)-4,5-dihydro-1H-imidazole, methane sulfonic acid salt] | 0.5 |
| CC(c1c[nH]cn1)c1ccco1 (stereo not shown) [L, 4(5)-(1-furan-2-ylethyl)-1H-imidazole] | 0.9 |
| O=C1CCCCC1Cc1c[nH]cn1 (stereo not shown) [V, 2-(1H-Imidazole-4(5)-ylmethyl)-cyclohexanone, but-2-enedioic acid salt] | 0.4 |

Source: patent US6841684B2, “Imidiazoles having reduced side effects” (Allergan, Inc., priority 1997, dated 2005)
